Experimental findings from PMC12067128, “Macrocyclization: Enhancing Drug-like Properties of Discoidin Domain Receptor Kinase Inhibitors” (ACS Medicinal Chemistry Letters, 2025) are described below.

One data set is described as follows: EPSA polarity descriptor. Type of data set: physicochemical. Particulars: almost fully nonpolar environment; polarity in nonpolar environment. The method, then: (§1) Polarity is quantified by two descriptors: EPSA and Δlog kw ^IAM. The first is measured in an almost fully nonpolar environment, and the second describes polarity in an aqueous medium. […] This is also in line with the higher solubility of KIMCs over 1.

Data set [1] is described as follows: Δlog kW IAM polarity descriptor. Type of data set: physicochemical. The note with it: polarity in aqueous medium. The method, then:
as §1

The nature of data set [2]: ChromLogD chromatographic lipophilicity. The class given is physicochemical. The note with it: C18 column, pH 7.4. The method, then: The chromatographic method was based on the differential retention times of test compounds on a C18 column (Luna C18(2), 30 x 2mm, […], 100 Å) under controlled liquid chromatography conditions, comparing retention times with those of standards (Benzyl Alcohol, p-Nitrophenol, Bromobenzene, Anthracene) with known log D values. Stock solutions (10 mM in DMSO) of test compounds were diluted to a final concentration of 1 mM. The mobile phases consisted of A (20mM Ammonium Acetate buffered to pH 7.4 with ammonia hydroxide) and B (ACN). The LC gradient profile was the following: a linear increase to 90% B during 0.0 to 1.3 min, hold at 90 % B during 1.3 to 1.53 min then back to 0.0% B from 1.53 to 1.60 min, hold at 0% B until the end of the run (2.00 min). 1 μL of the sample volume was injected, using a flow rate of 0.5 mL/min and a column temperature of 40°C. All compounds were detected by UPLC/MS analysis using a a Waters ACQUITY UPLC equipped with a Photo Diode Array (PDA) detector coupled with a Waters ACQUITY QDa single quadrupole mass spectrometer with an Electrospray ionization (ESI) source.
The retention times were obtained by processing data in Waters Openlynx. The standards are then plotted in excel and the best fit line was used as the basis for calculating the unknown LogD values from the retention times of the peaks obtained.

The next data set in a line: Kinetic solubility. Type of data set: physicochemical. Here is the method: Using a stock solution of test compound in 100% DMSO, duplicate dilutions were prepared at a nominal concentration of 200 µM in 0.1 M phosphate buffered saline (PBS) at pH 7.4, with a 2% final DMSO content. Test compound calibration standards were prepared at 200 µM and 10 µM in 100%
DMSO. The PBS and DMSO dilutions were equilibrated on a shaking platform at room temperature for two hours prior to filtration using a Multiscreen HTS solubility filter plate (Millipore). Filtrates were analysed by LC-UV-MS and the concentration of compound in PBS filtrate determined by comparing the UV absorbance peak with that of the two DMSO calibration standards. Mass spectrometry will be used to confirm the presence of the expected molecular ion in the UV peak measured. The effective range of the assay is 5 – 200 µM. […]

Another data set has as its target T1, DDR1 (Homo sapiens, UniProt Q08345).
T1 construct: ProLink™ (PK) tagged full-length DDR1b; host or cells: U2OS human osteosarcoma cells (PathHunter U2OS DDR1)
Kind of data set: PathHunter U2OS DDR1 Functional Assay (DDR1 cellular assay). Type of data set: cell-based. The note with it: U2OS PathHunter cells, collagen II stimulation; read-out: Cell DDR1 IC50. The method, then:
page 17: In vitro Biology DDR1 cellular assay The activity of Discoidin Domain-containing Receptor protein kinase (DDR) inhibitors was determined using the PathHunter® U2OS DDR1 Functional Assay which employs Enzyme Fragment Complementation (EFC) technology, where the β-galactosidase (β-gal) enzyme is split into two fragments, ProLink (PK) and Enzyme Acceptor (EA). Independently these fragments […] β-gal enzyme. In the PathHunter® U2OS DDR1 Functional Assay, the U2OS human osteosarcoma cell line is modified to co-express a ProLinkTM (PK) tagged full-length DDR1b and an Enzyme Acceptor (EA) tagged SH2 domain. Collagen II, as a ligand, induces activation of DDR1b which results in cross-phosphorylation. The SH2-EA fusion protein then specifically binds the phosphorylated receptor resulting in complementation of the two fragments of β-gal and formation of a functional enzyme. β-gal activity is then quantitatively detected using a chemiluminescent substrate. PathHunter® Human U2OS DDR1 cells were prepared in AssayCompleteTM Cell Plating 16 Reagent (DiscoverX 93-0563R16A) and plated at 5000 cells/well in a 384-well white, clear-bottom, sterile plate (ThermoFisher 142762) and incubated for 90 minutes at 37 °C, 5% CO2. Test compounds were serially diluted from a top concentration of 10 mM (1000x final assay concentration) directly in a 384-well low-volume polypropylene plate (Greiner bio-one 784201) using an Echo 555 acoustic liquid handler (Labcyte). Test compounds were diluted in AssayCompleteTM Cell Plating 16 Reagent then added to cells using an Integra ViaFlow384 electronic reagent dispenser and pre-incubated at 37 °C, 5% CO2 for 30 minutes. Following compound pre-incubation, the cells were stimulated with 20 μg/ml Bovine Type II Collagen (DiscoverX 92-1090) with incubation for 20 hours at 37 °C, 5% CO2. Next, PathHunter Detection Reagent (DiscoverX 93-[…]) was added to the cells, incubated for 60 minutes at 25 °C in the dark, prior to capturing the chemiluminescent signal on a PHERAstar (BMG LABTECH). The percentage of inhibition was calculated for each concentration of compound using a 0.1% DMSO vehicle/Collagen II control response as a 0% inhibition and a 10 nM Dasatinib/Collagen II positive 17 page 18: control response as a 100% inhibition. The final assay concentration of the top of the test compound CRC was 10 μM. 18

Data set [3] in a line: log k'80 PLRP-S chromatographic descriptor. Type of data set: physicochemical. The note with it: surrogate of log Dtol. From the text: (§2) Lipophilicity has been obtained in four different systems. BRlogD and ChromlogD are chromatographic surrogates of log Doct and, despite showing different values, are linearly correlated (Figure S4). Log k′ 80 PLRP-S is a surrogate of log Dtol. Log kw ^IAM mimics the interaction between the compounds and the phospholipids of membranes. The combination of the experimental lipophilicity descriptors is essential to evaluate lipophilicity in different regions of the membrane bilayer. This complete lipophilicity profile may give an idea of the permeability potential of poorly soluble compounds for which standard permeability measurements are unreliable. […] This is supported by its low IC50 value in the cell-based assay.

Data set [4] in a line: Microsomes stability (clearance in human microsomes). The note with it: liver microsomes, pH 7.4, 0.8 mg protein/mL, 1 mM NADPH, 37 °C, read-out: CLint h mic (clearance in human microsomes). The class given is in vitro ADME. Here is the method: values in Caco-2 assay were: <10 nm/s = low level; 10-50 nm/s = medium level; >50 nm/s = high […]
Test compounds were incubated, in duplicate, at the concentration of 1 μM with liver microsomes (0.8 mg protein/mL) in Dulbecco’s buffer (pH 7.4) at 37 °C in the presence of 1 mM NADPH. At different time points (0, 5, 10, 20, 30, and 60 min), 50 μL aliquots of the incubates were taken, added with 80 μL of ice-cold acetonitrile, and 20 μL of 1 μM warfarin in acetonitrile (injection check) to stop the reaction, and samples were centrifuged. The supernatants were analyzed by LC−MS/MS for unchanged compounds. Test compounds were incubated with liver microsomes in Dulbecco’s buffer in the absence of NADPH for 0 and 60 min, as control. Midazolam at the concentration of 1 μM, was incubated with microsomes as positive control for phase I activity of microsomes. Control samples were processed as test compound samples.

Data set [5] can be described thus: BRlogD chromatographic lipophilicity. Type of data set: physicochemical. The note with it: XBridge Shield RP18, pH 7.0, 60% acetonitrile.
Protocol: The original method was described in a previous paper.e Briefly, a HPLC Thermo Fisher Scientific Dionex Ultimate 3000 instrument equipped with a Low-Pressure Mixing Gradient Pump LPG-3400 SD, ACC-3000 autosampler with termostatable column compartment, a DAD-3000 RS Detector and Chromeleon Data System Version 7.2.10 was used. Deionized water and HPLC grade acetonitrile were used throughout. The mobile phases consisted of 20 mM ammonium acetate at pH 7.0 and acetonitrile 60% v/v. Samples were dissolved in a 1:1 mixture of buffer/acetonitrile in the concentration range of 50–100 ug/mL. A 10uL volume of each solution was injected at 30°C and flow rate was 1 mL/min. The dead time, t0, was determined by monitoring the baseline disturbance.
retention time (tR) was measured on a XBridgeTM Shield RP18 (Waters, 5cm x 4.6 mm, 5 µm particle size, 130Å pore size). Isocratic log k’ (capacity factor k’ = (tR - t0)/t0) values were measured. The relationship between log D and log k’60 has been determined previously and is reported below (Eq.
We termed this log D as BRlogD.
Data set [6] in a line: log kW IAM (immobilized artificial membrane chromatography). The note with it: lipophilicity descriptor, phospholipid interaction. Type of data set: physicochemical.
Source text: as §2

The nature of data set [7]: Chamelogk chameleonicity descriptor. Type of data set: physicochemical. Particulars: >0.6 = chameleons, <0.6 = non-chameleons. The method, then: Finally, chameleonicity was measured with the recently described Chamelogk method (Table ), where 0.6 is the threshold value to distinguish chameleons from non-chameleons.

T1 sequence (Q08345 19-913): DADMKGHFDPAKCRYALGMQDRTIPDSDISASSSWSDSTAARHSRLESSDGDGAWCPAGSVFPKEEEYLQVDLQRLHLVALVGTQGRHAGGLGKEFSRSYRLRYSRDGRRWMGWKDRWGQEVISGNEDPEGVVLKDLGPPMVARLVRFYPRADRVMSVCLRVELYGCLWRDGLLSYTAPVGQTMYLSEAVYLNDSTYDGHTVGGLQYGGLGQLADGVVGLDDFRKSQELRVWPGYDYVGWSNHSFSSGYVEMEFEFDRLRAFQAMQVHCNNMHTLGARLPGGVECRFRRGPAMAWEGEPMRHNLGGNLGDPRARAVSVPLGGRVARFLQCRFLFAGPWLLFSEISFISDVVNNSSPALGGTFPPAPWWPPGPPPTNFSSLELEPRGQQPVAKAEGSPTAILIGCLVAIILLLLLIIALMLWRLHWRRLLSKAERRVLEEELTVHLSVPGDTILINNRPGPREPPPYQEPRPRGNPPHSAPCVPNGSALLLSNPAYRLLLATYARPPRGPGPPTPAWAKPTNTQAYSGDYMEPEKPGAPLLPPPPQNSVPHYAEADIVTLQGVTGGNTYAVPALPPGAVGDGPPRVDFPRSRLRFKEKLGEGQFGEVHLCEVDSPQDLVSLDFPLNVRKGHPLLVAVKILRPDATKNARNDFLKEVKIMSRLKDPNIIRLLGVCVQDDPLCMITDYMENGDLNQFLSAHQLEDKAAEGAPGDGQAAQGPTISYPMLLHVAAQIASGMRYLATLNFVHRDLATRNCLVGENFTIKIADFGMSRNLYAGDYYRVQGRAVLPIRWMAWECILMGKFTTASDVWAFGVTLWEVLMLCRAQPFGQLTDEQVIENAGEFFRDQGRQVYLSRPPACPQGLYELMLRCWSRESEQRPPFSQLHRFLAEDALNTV

In “EPSA polarity descriptor”, `Cc1ccc(C(=O)Nc2cccc(C(F)(F)F)c2)cc1-c1cc2nc(Nc3cnn(C)c3)ncc2[nH]1` [Compound 1] yielded an EPSA of 106 A^2. Further, the “Δlog kW^IAM” value in data set [1] is recorded as 0.47. In addition, the chromatographic logD (as a rule, lipophilicity estimated from chromatographic retention) in [2] is 2.92. Also, the “kinetic solubility (in words)” value in “Kinetic solubility” is “almost insoluble”. Also, the kinetic solubility (usually solubility judged after dilution from a stock solution rather than from solid) at 2 h in “Kinetic solubility” (phosphate buffered saline, PBS pH 7.4, 2% DMSO, 2 h room temperature, assay range 5-200 µM, read-out: KS (kinetic solubility)) is less than 5 µM. Further, on DDR1, the concentration for half-maximal inhibition (IC50) (usually the point on the concentration scale where inhibition reaches its midpoint) was 3 nM. Besides, in data set [3], the “logk'80 PLRP-S” value is given as -0.3. The microsomal CLint at 1 h, 1 µM in data set [4] stood at 19 ± 2.1 µL/min/mg. The compound also registered a BRlogD in data set [5] of 3.36. Also, in [6], the “log kW^IAM” value amounted to 2.53. This compound also gave a Chamelogk in data set [7] of 0.99.
